# Reference: patent US20220265775A1, “COMPOSITIONS AND METHODS FOR TREATING PULMONARY EDEMA OR LUNG INFLAMMATION” (priority 2019, published 2022)
# Tests used:
# [1] = test system: Nrf2; assay: Western blot of total cellular and nuclear Nrf2 protein in RLE-6TN cells under hyperoxia; type: cell-based, rat; settings: 24 hours of hyperoxia, 10^−6 M T3
# Protocol: FIG. 9. […] The cells were then collected for Western Blot analysis. (A) Cellular total Nrf2 protein; (B) Nuclear Nrf2.
# Nuclei were extracted with NE-PER nuclear and cytoplasmic extraction reagents kit (Thermo Fisher Scientific, Inc., Waltham, Mass.) following the manufacturer's instruction.
# (§1) The cells were lysed in lysis buffer containing 20 mM Tris HCl (pH 7.5), 150 mM NaCl, 1 mM EDTA, 1 mM EGTA, 1% (vol/vol) Triton X-100 with protease inhibitors (1 mM PMSF, 2 μg/ml pepstatin, and 10 μg/ml each of aprotinin and leupeptin), and phosphatase inhibitors (2.5 mM sodium pyrophosphate, 1 mM β-glycerophosphate, and 1 mM Na3VO4). The lysate was drawn 10 times through a 25-gauge needle on ice for further lysis and then was centrifuged at 13,000 rpm for 15 minutes at 4° C. The supernatant was collected, and the protein concentrations were determined by use of the BCA protein assay kit (Sigma-Aldrich, St. Louis, Mo.). Immediately after this step, equal amounts of protein were subjected to Western blotting analysis.
# [2] = test system: Akt; assay: Western blot of Akt phosphorylation in RLE-6TN cells under hyperoxia; type: cell-based, rat; settings: hyperoxia for 24 hours, T3 added for 20 minutes, vs room air control and hyperoxia alone
# Protocol: FIG. 12. T3-induced increase activation of Akt by phosphorylation. (A) T3 augmented phosphorylation of Akt (p-Akt). […] (C) The PI3K inhibitor wortmannin blocked the T3-induced increase in total cellular amount of HO-1 protein.
# as §1
# [3] = test system: hyperoxia-induced lung injury; assay: Wet-dry lung weight ratio in hyperoxia-exposed rats; type: in vivo, Sprague Dawley rats; settings: 60 hours of hyperoxia (O2 with T3), intraperitoneal T3 12.5 μg/kg body weight each 12 hours, O2 alone 6.61±0.604, p=0.0495
# Excerpt: (§2) All experimental protocols for animal treatments were approved by the University of Minnesota Institutional Animal Care and Use Committee. […] The room-air control rats were kept in the University animal housing facility. At the end of hyperoxic exposure, rats were sacrificed by intraperitoneal pentobarbital injection, and the lungs were harvested; the right lobes were allocated for histopathology, measurement of lung tissue myeloperoxidase (MPO) activity and wet-to-dry weight ratio. The left lobes underwent bronchoalveolar lavage (BAL) to determine BAL protein concentrations and differential cell counts.
# A portion of the right lung was rinsed briefly in PBS, blotted, and then weighed to obtain the “wet” weight. Lungs then were dried in an oven at 80° C. for seven days to obtain the “dry” weight.
# [4] = test system: hyperoxia-induced lung injury; assay: Lung lavage (BAL) analyses in hyperoxia-exposed rats: protein concentration and cell counts; type: in vivo, Sprague Dawley rats
# Excerpt: as §2
# Bronchoalveolar lavage (BAL) of the left lung was performed using a modification of a method previously described (Pace et al., Exp Lung Res 35:380-398, 2009). Briefly, 4 mls of ice-chilled 1×PBS (pH 7.4) were instilled into the left lung, withdrawn, and re-instilled two subsequent times prior to analysis of the lavage fluid. The retrieved BAL fluid was centrifuged at 1500 rpm for 10 minutes to remove cells and debris. The cell pellet was resuspended in 1 ml of 1×PBS (pH 7.4) and total cell number was counted using a hemocytometer. BAL cytospin preparations were stained using the Hema3 stain kit (Thermo Fisher Scientific, Inc., Waltham, Mass.) to identify the nucleated cells. The protein concentration was determined on the supernatants of BAL fluid using a standard BCA assay (Sigma-Aldrich, St. Louis, Mo.).
# [5] = Serum total T3 measurement (RIA) in hyperoxia-exposed rats; type: in vivo, Sprague Dawley rats; settings: rats exposed to 95% oxygen for 60 hours, intraperitoneal T3 supplementation 50 μg/kg bodyweight/24 hours, vs hyperoxia alone
# Protocol: FIG. 13. […] Rats were exposed to ˜ 95% of oxygen for 60 hours. […] RA: room air control.
# as §2
# Blood samples were collected at the end of 60 hours of hyperoxia and were centrifuged at 13,000 rpm for 30 minutes at 4° C. Supernatant was stored at −20° C.
# [6] = Preliminary tolerability of intratracheal instillation of liothyronine sodium in rats; type: in vivo; settings: preliminary studies, pH of >10.0 as supplied commercially
# Protocol: Therefore, the liothyronine sodium and the vehicle were adjusted to neutral pH (6.0-8.0) with sterile 1.0 N HCl (Sigma-Aldrich, St. Louis, Mo.) added aseptically in a biosafety cabinet prior to intratracheal instillation into animals. Using aseptic technique, vials of liothyronine sodium were opened and the entire contents were transferred into sterile 1.5 mL Eppendorf tubes. 80-90 μL of 1.0 N HCl was added to the tube and gently vortexed, and the pH was measured using pH test strips (pH 4.5 to 10.0, Ricca Chemical Co., Arlington, Tex.). Additional HCl was titrated in gradually, as needed, until the pH was in the desired range. […] This solution was stored at 4° C. and used for up to 26 hours after pH adjustment procedure. […] The vehicle was also adjusted to neutral pH (6.0-8.0) with 1.0 N HCl as described above. Using aseptic technique the vehicle was filter sterilized and aliquoted into 21 sterile disposable tubes (5 mL each) and stored at 4° C., and a new tube was opened for each day of use. Normal Saline (0.9% Sodium Chloride Injection USP, B. Braun Medical, Inc., Bethlehem, Pa.), was stored at room temperature. A new package was opened for each day of use.
smiles,measurement,setting,value
"N[C@@H](Cc1cc(I)c(Oc2ccc(O)c(I)c2)c(I)c1)C(=O)O [T3, triiodothyronine]",nuclear Nrf-2 protein expression,[1],significantly increased both total cellular and nuclear Nrf-2 protein expression
same,total cellular Nrf-2 protein expression,[1],significantly increased both total cellular and nuclear Nrf-2 protein expression
same,phosphorylation of Akt (p-Akt),[2],augmented phosphorylation of Akt at Ser473
same,wet-to-dry lung weight ratio,[3],5.82±0.197
same,neutrophils among BALF cells,[4]; rats after hyperoxia with T3 treatment (data not shown),relatively few of the BALF cells after hyperoxia were neutrophils
same,BALF cell numbers,"[4]; rats, 95% oxygen, 48 hours and 60 hours, T3 administration vs hyperoxia alone",significantly reduced the BALF cell numbers
same,BALF protein concentration,"[4]; rats, hyperoxia, 48 hour and 60 hour time points, T3 administration vs hyperoxia alone",attenuated significantly the hyperoxic increases
same,serum total T3 level,[5],augmented serum total T3
same,tolerability of intratracheal instillation,[6],do not tolerate
